{"source": "patent US7250389B1", "about": "“Antifungal compound and process for producing the same” (Meiji Seika Kaisha, Ltd., priority 1998, dated 2007)", "key": {"[1]": {"tested_on": "rice blast fungi (Pyricularia oryzae)", "type": "in vivo"}, "[2]": {"tested_on": "cucumber anthracnose fungi (Colletotricum lagenarium)", "type": "in vivo", "settings": "200 ppm spray; cucumber seedlings; seven days after inoculation"}, "[3]": {"tested_on": "cucumber downy mildew (pathogenic fungi: Peseudoperonocpora cubensis)", "assay": "Test on effect of protecting cucumber against downy mildew", "type": "in vivo", "settings": "200 ppm spray; cucumber seedlings; seven days after inoculation", "experimental": "Cucumber seedlings (variety: Suyo) of first leaf development stage raised in each of plastic pots containing compost were provided. […] The agent was air dried. Thereafter, a conidial suspension, which had been previously prepared by scraping lesion portions on the undersurface of cucumber suffering from cucumber downy mildew (pathogenic fungi: […] cubensis), was evenly inoculated by spraying. The pots were then kept under moist chamber conditions at 20° C. for 24 hr to perform infection. Thereafter, they were transferred to an environment control room kept at 18° C. at night and at 22° C. in the daytime to induce the disease."}, "[4]": {"tested_on": "cucumber anthracnose fungi (Colletotricum lagenarium)", "assay": "Confirmation test on persistence of the effect of protecting cucumber against anthracnose", "type": "in vivo", "settings": "for Protective value, Plot 2: inoculation on the day subsequent to holding under fluorescent lamp; for Protective value, Plot 3: inoculation on the day subsequent to holding under sunlight; for Protective value, Plot 1: inoculation on the same day as application", "description": "Cucumber seedlings (variety: Suyo) of first leaf development stage raised in each of plastic pots containing compost were provided. […] The agent was air dried. On the same day or 24 hr after the air drying, a conidial suspension of cucumber anthracnose fungi (Colletotricum lagenarium), which had been previously cultured in a potato soup agar medium, was evenly inoculated by spraying. […] Experimental Plots: Plot 1: Plot subjected to inoculation on the same day as application: Inoculation was carried out on the same day as the air drying, and the pots were allowed to stand under moist chamber conditions at 26° C. for 24 hr and then allowed to stand for 7 days in an environment control room kept at 18° C. at night and at 25° C. in the daytime. Plot 2: Plot subjected to inoculation on the day subsequent to holding under fluorescent lamp: After the air drying, the pots were placed in an environment control room under an indoor fluorescent lamp (the control room being kept at 18° C. at night and at 25° C. in the daytime with the fluorescent lamp being turned on for 8 hr in the daytime). 24 hr after the application of the agent, inoculation was carried out. Thereafter, the pots were allowed to stand under moist chamber conditions at 26° C. for 24 hr and then allowed to stand for 7 days in an environment control room kept at 18° C. at night and at 25° C. in the daytime. Plot 3: Plot subjected to inoculation on the day subsequent to holding under sunlight: After the air drying, the pots were placed outdoors under sunlight in the daytime (8 hr) and then allowed to stand in an environment control room kept at 18° C. 24 hr after the application of the agent, inoculation was carried out. Thereafter, the pots were allowed to stand under moist chamber conditions at 26° C. for 24 hr and then allowed to stand for 7 days in an environment control room kept at […] at night and at 25° C. in the daytime."}, "[5]": {"assay": "Photostability test (percentage residue as determined by HPLC)", "type": "physicochemical", "settings": "thin film", "experimental": "In consideration of use in agricultural chemicals, the following test was carried out to obtain data on photostability against exposure to sunlight. Date and Time of Test: First: 5 hr from 12:00 to 17:00 on May 26, 1997 Second: 6 hr from 10:00 to 16:00 on May 28, 1997 Place: For both tests, Odawara-shi, Kanagawa Weather: For both tests, fine […] Acetone was shortly evaporated. As a result, each sample was brought into a white thin film. The films thus obtained were exposed to sunlight. After the completion of exposure to sunlight, the residual amount of UK-2A and the residual amount of the compound of Example 18 were quantitatively determined by HPLC (column: YMC-PACKODS-AS-56.0×150 mm (A-312)), mobile phase: acetonitrile-water=70 : 30 (v/v), detection wavelength: 254 nm)."}, "blast (rice seedlings)": {"tested_on": "blast (rice seedlings)", "assay": "Photostability test (effect of protecting rice seedlings against blast, outdoors)", "type": "in vivo", "settings": "200 ppm, 100 mL per m^2; outdoor rice seedlings; lesion area 19 days after application", "description": "Rice seedlings of three-leaf stage (variety: Koshihikari) raised outdoors in an upland field bed (1 m×1 m) for rice seedlings were covered with a vinyl tunnel, only at night, with ears of rice suffering from blast being suspended (height 40 cm) to infect rice seedlings with blast. After the incipient infection was confirmed, agent solutions having an agent concentration of 200 ppm prepared by varying the agent concentration by the method as described in Test Example 2 each were applied in an amount of 100 mL per m^2 by means of a sprayer. For one week after the application of the agent, the rice seedlings were covered with the vinyl tunnel at night to promote the infection. 19 days after the application of the agent, the lesion area of the leaf was measured, and the protective value was calculated by the following equation.\nProtective value=(1−average lesion area of treated plot)/lesion area of untreated plot)×100"}}, "note": "Where two headings read alike, the source gives them in different places.", "data": [{"compound": "CCCCCCC1C(=O)OC(C)C(NC(=O)c2cccc(NC=O)c2O)C(=O)OC(C)C1OC(=O)CC(C)C", "note": "(stereo not drawn) [Antimycin A, reference compound]", "values": [{"measurement": "Protective value", "setting": "[1]; 100 ppm spray, rice seedlings, lesions counted seven days after inoculation", "result": 83}, {"measurement": "Protective value", "setting": "[2]", "result": 17}]}, {"compound": "CC(C)C(=O)O[C@H]1[C@H](C)OC(=O)[C@@H](NC(=O)c2cc(NC=O)ccc2O)COC(=O)[C@@H]1Cc1ccccc1", "note": "[Ex. 52, (2R,3R,4S,7S)-7-(5-Formylaminosalicyl)amino-2-benzyl-5,9-dioxa-3-isobutyryloxy-4-methyl-1,6-cyclononanedione]", "values": [{"measurement": "Protective value", "setting": "[3]", "result": 100}]}, {"compound": "CC(C)C(=O)O[C@H]1[C@H](C)OC(=O)[C@@H](NC(=O)c2nc3ccccc3nc2O)COC(=O)[C@@H]1Cc1ccccc1", "note": "[Ex. 8, (2R,3R,4S,7S)-7-(3-Hydroxy-2-quinoxalinecarboxylamino)-2-benzyl-5,9-dioxa-3-isobutyryloxy-4-methyl-1,6-cyclononanedione]", "values": [{"measurement": "Protective value", "setting": "[1]; in vivo", "result": 100}, {"measurement": "Protective value", "setting": "[2]", "result": 100}]}, {"compound": "COc1cccc(C(=O)N[C@H]2COC(=O)[C@H](Cc3ccccc3)[C@@H](OC(=O)C(C)C)[C@H](C)OC2=O)c1O", "note": "[Ex. 38, (2R,3R,4S,7S)-7-(3-Methoxysalicylamino)-2-benzyl-5,9-dioxa-3-isobutyryloxy-4-methyl-1,6-cyclononanedione]", "values": [{"measurement": "Protective value", "setting": "[1]; in vivo", "result": 83}]}, {"compound": "CC(C)C(=O)O[C@H]1[C@H](C)OC(=O)[C@@H](NC(=O)c2ccccc2O)COC(=O)[C@@H]1Cc1ccccc1", "note": "[Ex. 39, (2R,3R,4S,7S)-7-Salicylamino-2-benzyl-5,9-dioxa-3-isobutyryloxy-4-methyl-1,6-cyclononanedione]", "values": [{"measurement": "Protective value", "setting": "[1]; in vivo", "result": 98}]}, {"compound": "CC(C)C(=O)O[C@H]1[C@H](C)OC(=O)[C@@H](NC(=O)c2cccc([N+](=O)[O-])c2O)COC(=O)[C@@H]1Cc1ccccc1", "note": "[Ex. 40, (2R,3R,4S,7S)-7-(3-Nitrosalicyl)amino-2-benzyl-5,9-dioxa-3-isobutyryloxy-4-methyl-1,6-cyclononanedione]", "values": [{"measurement": "Protective value", "setting": "[3]", "result": 100}]}, {"compound": "CC(C)C(=O)O[C@H]1[C@H](C)OC(=O)[C@@H](NC(=O)c2cccnc2O)COC(=O)[C@@H]1Cc1ccccc1", "note": "[Ex. 4, (2R,3R,4S,7S)-7-(2-Hydroxynicotinylamino)-2-benzyl-5,9-dioxa-3-isobutyryloxy-4-methyl-1,6-cyclononanedione]", "values": [{"measurement": "Protective value", "setting": "[1]; in vivo", "result": 86}, {"measurement": "Protective value", "setting": "[3]", "result": 78}]}, {"compound": "COc1ccnc(C(=O)N[C@H]2COC(=O)[C@H](Cc3ccccc3)[C@@H](OC(=O)C(C)C)[C@H](C)OC2=O)c1O", "note": "[UK-2A, reference compound]", "values": [{"measurement": "Protective value, Plot 2", "setting": "[4]; 10 ppm", "result": 93}, {"measurement": "Protective value, Plot 3", "setting": "[4]; 10 ppm", "result": 27}, {"measurement": "Protective value, Plot 1", "setting": "[4]; 10 ppm", "result": 80}, {"measurement": "Protective value, Plot 2", "setting": "[4]; 30 ppm", "result": 100}, {"measurement": "Protective value, Plot 3", "setting": "[4]; 30 ppm", "result": 60}, {"measurement": "Protective value, Plot 1", "setting": "[4]; 30 ppm", "result": 100}, {"measurement": "Residual amount after exposure to sunlight", "setting": "[5]; First test: 5 hr sunlight", "result": 33, "unit": "%"}, {"measurement": "Residual amount after exposure to sunlight", "setting": "[5]; Second test: 6 hr sunlight", "result": 64, "unit": "%"}, {"measurement": "Protective value", "setting": "blast (rice seedlings)", "result": 63}]}, {"compound": "COc1ccnc(C(=O)N[C@H]2COC(=O)[C@H](Cc3ccccc3)[C@@H](OC(=O)C(C)C)[C@H](C)OC2=O)c1OC(C)=O", "note": "[Ex. 18, (2R,3R,4S,7S)-7-(3-Acetoxy-4-methoxypicolinylamino)-2-benzyl-5,9-dioxa-3-isobutyryloxy-4-methyl-1,6-cyclo-nonanedione]", "values": [{"measurement": "Protective value, Plot 2", "setting": "[4]; 10 ppm", "result": 93}, {"measurement": "Protective value, Plot 3", "setting": "[4]; 10 ppm", "result": 60}, {"measurement": "Protective value, Plot 1", "setting": "[4]; 10 ppm", "result": 67}, {"measurement": "Protective value, Plot 2", "setting": "[4]; 30 ppm", "result": 93}, {"measurement": "Protective value, Plot 3", "setting": "[4]; 30 ppm", "result": 80}, {"measurement": "Protective value, Plot 1", "setting": "[4]; 30 ppm", "result": 67}, {"measurement": "Protective value, Plot 2", "setting": "[4]; 100 ppm", "result": 93}, {"measurement": "Protective value, Plot 3", "setting": "[4]; 100 ppm", "result": 93}, {"measurement": "Protective value, Plot 1", "setting": "[4]; 100 ppm", "result": 87}, {"measurement": "residual effect under sunlight compared with UK-2A", "setting": "[4]; plot 3", "result": "much superior to UK-2A"}, {"measurement": "difference in protective value between UK-2A and the compound of Example 18", "setting": "[4]; plots 1 and 2", "result": "no significant difference"}, {"measurement": "Residual amount after exposure to sunlight", "setting": "[5]; First test: 5 hr sunlight", "result": 98, "unit": "%"}, {"measurement": "Residual amount after exposure to sunlight", "setting": "[5]; Second test: 6 hr sunlight", "result": 93, "unit": "%"}, {"measurement": "Protective value", "setting": "blast (rice seedlings)", "result": 95}]}, {"compound": "CC(C)C(=O)O[C@H]1[C@H](C)OC(=O)[C@@H](NC(=O)c2cccc(N)c2O)COC(=O)[C@@H]1Cc1ccccc1", "note": "[Ex. 41, (2R,3R,4S,7S)-7-(3-Aminosalicyl)amino-2-benzyl-5,9-dioxa-3-isobutyryloxy-4-methyl-1,6-cyclononanedione]", "values": [{"measurement": "Protective value", "setting": "[1]; in vivo", "result": 86}, {"measurement": "Protective value", "setting": "[2]", "result": 100}, {"measurement": "Protective value", "setting": "[3]", "result": 88}]}, {"compound": "CC(C)C(=O)O[C@H]1[C@H](C)OC(=O)[C@@H](NC(=O)c2cccc(O)n2)COC(=O)[C@@H]1Cc1ccccc1", "note": "[Ex. 5, (2R,3R,4S,7S)-7-(6-Hydroxypicolinylamino)-2-benzyl-5,9-dioxa-3-isobutyryloxy-4-methyl-1,6-cyclononanedione]", "values": [{"measurement": "Protective value", "setting": "[1]; in vivo", "result": 90}, {"measurement": "Protective value", "setting": "[3]", "result": 100}]}, {"compound": "CC(C)C(=O)O[C@H]1[C@H](C)OC(=O)[C@@H](NC(=O)c2cc(Cl)ccc2O)COC(=O)[C@@H]1Cc1ccccc1", "note": "[Ex. 46, (2R,3R,4S,7S)-7-(5-Chlorosalicyl)amino-2-benzyl-5,9-dioxa-3-isobutyryloxy-4-methyl-1,6-cyclononanedione]", "values": [{"measurement": "Protective value", "setting": "[2]", "result": 100}]}]}
